Data from patent publication US11964943B2, “3,5-diarylidenyl-n-substituted-piperid-4-one-derived inhibitors of Stat3 pathway activity and uses thereof” (priority 2017, dated 2024).
In brackets after ≈: the same amount, converted by molar mass. Entries after “also recorded” stand apart in the source; their conditions may differ.

How the values were obtained:
pStat3^Tyr705 = test: Immunoblotting of phosphorylated Stat3 in cancer cells; assay type: cell-based, human; conditions: for persistence of pStat3 inhibition post treatment: DU145 and A549, after 18 h treatment and drug removal; for inhibition of Stat3 tyrosine (705) phosphorylation (pStat3): DU145 and A549 cells with constitutively active Stat3, 18 h; for concentrations at which pSTAT3 is inhibited: cells with persistent Stat3 activation
Method: (§1) Whole cell lysates were prepared by incubation of harvested, trypsinised cells with CelLytic™ lysis buffer (Sigma-Aldrich) supplemented with 1× protease and 1× phosphatase inhibitors (Roche). Protein quantification was carried out using a protein assay kit (Bio-Rad). 40 μg of the lysates were denatured by heating for 5 min at 95° C. in sample buffer containing 100 mM Tris-Cl (pH 6.8), 4% SDS, 10% 2-mercaptoethanol, 20% glycerol, and 0.02% bromophenol blue. Precision Plus Protein Dual colour standards (Bio-Rad) were used as a molecular weight reference. For the detection of STAT3, pSTAT3, α/β tubulin, cleaved PARP, Bcl-2, Bcl-xL, FANCD2, BRCA1, EME1 and MUS81, proteins were separated on a NuPAGE 7% Tris-acetate gel (Life Technologies) and subsequently transferred to polyvinylidene difluoride membranes (Immobilon®-P transfer membrane; Millipore). […] Membranes were blocked for 1 h at ambient temperature in a blocking buffer containing 5% w/v Bovine Serum Albumin (BSA; Sigma-Aldrich) in 1×TBS, 0.1% Tween-20. All proteins were identified by incubation in a 1:1000 dilution of the respective polyclonal antibodies (Cell signaling) in blocking buffer overnight at 4° C. and subsequent incubation for 1 h with an anti-rabbit or anti-mouse secondary antibody (Cell signalling) at a dilution of 1:1000. The α/β tubulin (1:2000; Cell Signaling) and the anti-phospho-histone H2AX Antibody (1:500; Millipore) were used in the denoted dilutions. Antibody binding was visualized by enhanced chemiluminescence (Amersham) on autoradiography film (Kodak-X-Omat). Alternatively Images were captured by the GelDoc-It Imaging System Fusion Fx7 (Vilber Lourmat, Germany).
as §1, with “Immunoblotting. Whole” for “Whole”, “CelLytic™ M” for “CelLytic™”, “pSTAT3, a/0” for “pSTAT3, α/β”, “in 1×TBS” for “in 1×TBS,”, “(Cell signalling)” for “(Cell signaling)”

[1] = system: HCT116-oxaliplatin resistant cells; test: MTT growth inhibition and Chou-Talalay combination index with oxaliplatin; assay type: cell-based; parameters: key to Effect: affected fraction (Fa) from MTT absorbance, 0-1; conditions: for CI values in combination with oxaliplatin: fixed and non-fixed ratio combination treatments, in many instances
Method: The software Calcusyn was utilized for analysis of drug interactions using the Chou-Talalay combination index method (Chou, T.-C. Drug Combination Studies and Their Synergy Quantification Using the Chou-Talalay Method. [Cancer Res. 70, 440-446 (2010)]
The affected fractions were calculated from the SRB or MTT assay absorbance values and were registered to derive the respective CI values and isobolograms. A CI value of less than 1 (one) indicates synergy.
MIT assay. Individual drug treatments and combinations were carried out as with the SRB assay. The MTT assay was carried out as previously (see Cytotoxicity studies sections) with the difference that it was completed in 96 h.

[2] = target: Stat3 binding to hSIE DNA probe (Homo sapiens, UniProt P40763); test: Electrophoretic mobility shift assay (EMSA); conditions: DU145 nuclear extracts
Sequence of Stat3 binding to hSIE DNA probe (P40763 whole entry): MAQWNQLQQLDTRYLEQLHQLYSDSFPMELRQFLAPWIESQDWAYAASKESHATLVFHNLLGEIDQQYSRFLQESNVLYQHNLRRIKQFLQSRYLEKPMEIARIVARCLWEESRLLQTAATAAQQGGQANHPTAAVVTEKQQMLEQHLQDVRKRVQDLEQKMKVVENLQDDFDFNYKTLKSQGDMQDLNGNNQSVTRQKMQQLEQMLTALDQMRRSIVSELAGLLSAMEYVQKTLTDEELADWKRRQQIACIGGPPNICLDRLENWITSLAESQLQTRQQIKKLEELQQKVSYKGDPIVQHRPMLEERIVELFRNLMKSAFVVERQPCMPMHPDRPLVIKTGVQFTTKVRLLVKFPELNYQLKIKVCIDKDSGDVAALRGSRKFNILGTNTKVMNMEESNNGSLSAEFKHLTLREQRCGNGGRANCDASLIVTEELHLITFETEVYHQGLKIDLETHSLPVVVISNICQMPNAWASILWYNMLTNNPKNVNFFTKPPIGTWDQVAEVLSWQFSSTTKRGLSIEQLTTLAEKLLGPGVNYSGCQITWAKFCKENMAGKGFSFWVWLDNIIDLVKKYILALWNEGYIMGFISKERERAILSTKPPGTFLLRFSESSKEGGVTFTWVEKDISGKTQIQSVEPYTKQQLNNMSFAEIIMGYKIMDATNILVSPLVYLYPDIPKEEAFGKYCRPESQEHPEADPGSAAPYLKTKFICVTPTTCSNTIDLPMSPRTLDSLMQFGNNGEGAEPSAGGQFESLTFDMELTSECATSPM
Method: Binding reactions contained 0.9 μg poly(dI-dC). Competition assays were performed by adding 100× excess cold SIE oligonucleotide (lane C) and non-specific competitor (lane M: FIRE; 5′-[sequence]-3′). The DNA-protein complexes were subjected to electrophoresis and resolved on a 5% non-denaturing polyacrylamide gel (30% acrylamide/Bis solution, Bio-Rad) in 0.5% TBE buffer containing 2.5% glycerol (pH 7.8) at 4° C. for 2 h. Once dried, the radioactive signal of the gel was visualized by exposure to Fuji medical X-ray film.
Binding reactions contained 0.9 μg poly(dI-dC). Competition assays were performed by adding 100× excess cold SIE oligonucleotide (lane C) and non-specific competitor (lane M; FIRE; 5′-[sequence]-3′). The DNA-protein complexes were subjected to electrophoresis and resolved on a 5% non-denaturing polyacrylamide gel (30% acrylamide/Bis solution, Bio-Rad) in 0.5% TBE buffer containing 2.5% glycerol (pH 7.8) at 4° C. for 2 h. Once dried, the radioactive signal of the gel was visualized by exposure to Fuji medical X-ray film.

[3] = Aqueous solubility (MultiScreen Solubility Filter Plate, shake-flask based)
Method: Aqueous solubility of Compounds of the Invention was measured with a modified version of the MultiScreen Solubility Filter Plate protocol (Millipore). This assay was based on the shake-flask equilibrium method and utilizes UV-Vis spectroscopy to quantify the unknown samples. The assay was conducted at room temperature at pH 7.4. […] Compound of the Invention was dissolved in DMSO, and the final DMSO concentration was 5% (v/v). Each sample was analyzed by UV-Vis spectroscopy at 10 nm increments from 260-600 nm to determine the optimal wavelength for detection and construct standard curves. […] A 4:1 mixture of supernatant to acetonitrile was added to a 96-well acrylic plate and analyzed by UV-Vis spectroscopy.
Aqueous solubility was measured with a modified version of the MultiScreen Solubility Filter Plate protocol (Millipore). This assay is based on the shake-flask equilibrium method and utilizes UV-Vis spectroscopy to quantify the unknown samples. The assay is conducted at room temperature at pH 7.4. […] Each compound was dissolved in DMSO, and the final DMSO concentration was 5% (v/v). Each sample was analyzed by UV-Vis spectroscopy at 10 nm increments from 260-600 nm to determine the optimal wavelength for detection and construct standard curves. […] A 4:1 mixture of supernatant to acetonitrile was added to a 96-well acrylic plate and analyzed by UV-Vis spectroscopy.

[4] = IE-8 2.0 μM 1 h, then oxaliplatin 0.1 μM 96 h
[5] = IE-8 2.0 μM 1 h, then oxaliplatin 1.0 μM 96 h
[6] = IE-8 2.0 μM 1 h, then oxaliplatin 10.0 μM 96 h
[7] = IE-8 2.0 μM 1 h, then oxaliplatin 20.0 μM 96 h
[8] = IE-8 2.0 μM 1 h, then oxaliplatin 40.0 μM 96 h
[9] = IE-8 2.0 μM 1 h, then oxaliplatin 60.0 μM 96 h
[10] = IE-8 2.0 μM 1 h, then oxaliplatin 80.0 μM 96 h
[11] = IE-8 2.0 μM 1 h, then oxaliplatin 100.0 μM 96 h
[12] = IE-8 2.0 μM 1 h, then oxaliplatin 200.0 μM 96 h
[13] = IE-8 2.5 μM 1 h, then oxaliplatin 0.1 μM 96 h
[14] = IE-8 2.5 μM 1 h, then oxaliplatin 1.0 μM 96 h
[15] = IE-8 2.5 μM 1 h, then oxaliplatin 10.0 μM 96 h
[16] = IE-8 2.5 μM 1 h, then oxaliplatin 20.0 μM 96 h
[17] = IE-8 2.5 μM 1 h, then oxaliplatin 40.0 μM 96 h
[18] = IE-8 2.5 μM 1 h, then oxaliplatin 60.0 μM 96 h
[19] = IE-8 2.5 μM 1 h, then oxaliplatin 80.0 μM 96 h
[20] = IE-8 2.5 μM 1 h, then oxaliplatin 100.0 μM 96 h
[21] = IE-8 2.5 μM 1 h, then oxaliplatin 200.0 μM 96 h
[22] = IE-8 3.0 μM 1 h, then oxaliplatin 0.1 μM 96 h
[23] = IE-8 3.0 μM 1 h, then oxaliplatin 1.0 μM 96 h
[24] = IE-8 3.0 μM 1 h, then oxaliplatin 10.0 μM 96 h
[25] = IE-8 3.0 μM 1 h, then oxaliplatin 20.0 μM 96 h
[26] = IE-8 3.0 μM 1 h, then oxaliplatin 40.0 μM 96 h
[27] = IE-8 3.0 μM 1 h, then oxaliplatin 60.0 μM 96 h
[28] = IE-8 3.0 μM 1 h, then oxaliplatin 80.0 μM 96 h
[29] = IE-8 3.0 μM 1 h, then oxaliplatin 100.0 μM 96 h
[30] = IE-8 3.0 μM 1 h, then oxaliplatin 200.0 μM 96 h
[31] = oxaliplatin 1.0 μM 1 h, 3 h later IE-8 1.0 μM until 96 h
[32] = oxaliplatin 10.0 μM 1 h, 3 h later IE-8 1.0 μM until 96 h
[33] = oxaliplatin 20.0 μM 1 h, 3 h later IE-8 1.0 μM until 96 h
[34] = oxaliplatin 40.0 μM 1 h, 3 h later IE-8 1.0 μM until 96 h
[35] = oxaliplatin 60.0 μM 1 h, 3 h later IE-8 1.0 μM until 96 h
[36] = oxaliplatin 80.0 μM 1 h, 3 h later IE-8 1.0 μM until 96 h
[37] = oxaliplatin 200.0 μM 1 h, 3 h later IE-8 1.0 μM until 96 h
[38] = oxaliplatin 400.0 μM 1 h, 3 h later IE-8 1.0 μM until 96 h

Question: Which results are given for `COc1cc(/C=C2\CN(c3ccccc3)C/C(=C\c3cc(OC)c(OC)c(OC)c3)C2=O)cc(OC)c1OC` [IE-8, 3,5-Di(3,4,5-trimethoxybenzylidene)-1-phenylpiperidin-4-one]?
Answer: inhibition of IL-6 induced pStat3 (pStat3^Tyr705; A2780-cisplatin resistant cells, 18 h): the most potent inhibitor in this series; also recorded: efficiently inhibited; pStat3 inhibition after acute treatment (pStat3^Tyr705; DU145, 5 μM, 1 h): sufficient to inhibit pStat3; persistence of pStat3 inhibition post treatment (pStat3^Tyr705): at least 24 h; inhibition of Stat3 tyrosine (705) phosphorylation (pStat3) (pStat3^Tyr705): inhibits pStat3^Tyr705 levels without affecting the total Stat3 levels; also recorded: efficiently inhibited; inhibition of constitutively active Stat3 (pStat3) (pStat3^Tyr705; HCT116-oxaliplatin resistant cells, 18 h): the most potent among these inhibitors; also recorded: efficiently inhibited the constitutively active Stat3; pStat3 inhibition in 3D spheroids (pStat3^Tyr705; HCT116-oxaliplatin resistant or A2780-cisplatin resistant spheroids): inhibition of pStat3; also recorded: efficiently inhibited; concentrations at which pSTAT3 is inhibited (pStat3^Tyr705; 18 h): > 1 μM; CI-value [1, 4]: 1.558; Effect [1, 4]: 0.1065; CI-value [1, 5]: 1.979; Effect [1, 5]: 0.0954; CI-value [1, 6]: 2.754; Effect [1, 6]: 0.1575; CI-value [1, 7]: 1.58; Effect [1, 7]: 0.315; CI-value [1, 8]: 1.172; Effect [1, 8]: 0.4676; CI-value [1, 9]: 1.135; Effect [1, 9]: 0.5256; CI-value [1, 10]: 0.827; Effect [1, 10]: 0.6386; CI-value [1, 11]: 0.7749; Effect [1, 11]: 0.678; CI-value [1, 12]: 0.4016; Effect [1, 12]: 0.8582; CI-value [1, 13]: 0.721; Effect [1, 13]: 0.5165; CI-value [1, 14]: 1.405; Effect [1, 14]: 0.2143; CI-value [1, 15]: 1.985; Effect [1, 15]: 0.231; CI-value [1, 16]: 1.805; Effect [1, 16]: 0.313; CI-value [1, 17]: 0.8326; Effect [1, 17]: 0.6087; CI-value [1, 18]: 0.8009; Effect [1, 18]: 0.6559; CI-value [1, 19]: 0.5921; Effect [1, 19]: 0.76; CI-value [1, 20]: 0.7993; Effect [1, 20]: 0.7021; CI-value [1, 21]: 0.4777; Effect [1, 21]: 0.855; CI-value [1, 22]: 0.8489; Effect [1, 22]: 0.527; CI-value [1, 23]: 1.924; Effect [1, 23]: 0.171; CI-value [1, 24]: 1.573; Effect [1, 24]: 0.3259; CI-value [1, 25]: 1.453; Effect [1, 25]: 0.4064; CI-value [1, 26]: 0.7871; Effect [1, 26]: 0.6743; CI-value [1, 27]: 0.8214; Effect [1, 27]: 0.6878; CI-value [1, 28]: 0.5584; Effect [1, 28]: 0.8108; CI-value [1, 29]: 0.48; Effect [1, 29]: 0.8527; CI-value [1, 30]: 0.4763; Effect [1, 30]: 0.877; CI values in combination with oxaliplatin [1]: < 1; CI-value [1, 31]: 5.476; Effect [1, 31]: 0.2692; CI-value [1, 32]: 1.482; Effect [1, 32]: 0.6799; CI-value [1, 33]: 0.9954; Effect [1, 33]: 0.7838; CI-value [1, 34]: 0.5439; Effect [1, 34]: 0.8908; CI-value [1, 35]: 0.5183; Effect [1, 35]: 0.897; CI-value [1, 36]: 0.4279; Effect [1, 36]: 0.9184; CI-value [1, 37]: 0.3786; Effect [1, 37]: 0.93; CI-value [1, 38]: 0.488; Effect [1, 38]: 0.9045; concentration blocking Stat3-DNA binding activity [2]: ≥ 0.8 µM; solubility at 6 h ([3]; aqueous buffer with 5% DMSO, pH 7.4, aqueous with cosolvent or surfactant or cyclodextrin, kinetic from dmso stock): 200 ± 30 µM (≈ 106 µg/mL)

Question: For “3,5-Di(3,4,5-trimethoxybenzylidene)-1-phenylpiperidin-4-one [IE-8]”, which “persistence of pStat3 inhibition post treatment” value (pStat3^Tyr705) is on record?
Answer: Its value is “at least 24 h”.

Question: What about the “inhibition of Stat3 tyrosine (705) phosphorylation (pStat3)” value (pStat3^Tyr705) of the same compound?
Answer: The value was “efficiently inhibits”.

Question: What about the “concentrations at which pSTAT3 is inhibited” value (pStat3^Tyr705; 18 h) of the same compound?
Answer: Its value is greater than 1 μM.

Question: What about the “CI values in combination with oxaliplatin” value [1] of the same compound?
Answer: Its value is less than 1.

Question: And the “concentration blocking Stat3-DNA binding activity” value [2]?
Answer: Its value is no less than 0.8 µM.

Question: What about the “Solubility in aqueous buffer” value ([3]; pH 7.4, room temperature, 5% DMSO, free base) of the same compound?
Answer: The value was 200 ± 30 µM.
